Among the data in BindingDB's records for doi:10.1021/jm9905054 (Eisai, 2000) are IC50 values, retold here.

As usually defined, the IC50 is the point on the concentration scale where inhibition reaches its midpoint. Read a high IC50 as lower potency.

This assay is described as follows: 50% inhibitory concentration against phosphodiesterase 5 (PDE5) from porcine platelets.

Where a name gives a salt, the structure may show the parent alone.

In turn, `COc1ccc(CNc2nnc(Cl)c3ccc(C#N)cc23)cc1Cl` yielded an IC50 of 3 nM.

Take `COc1ccc(CNc2nnc(N3CC[S+]([O-])CC3)c3ccc(C#N)cc23)cc1Cl`: inhibition was half-maximal at 0.7 nM (IC50).

`COc1ccc(CNc2nnc(N3CCC(C(N)=O)CC3)c3ccc(C#N)cc23)cc1Cl` [1-[4-(3-Chloro-4-methoxy-benzylamino)-6-cyano-phthalazin-1-yl]-piperidine-4-carboxylic acid amide; hydrochloride] came in with an IC50 of 0.5 nM.

Turning to `COc1ccc(CNc2nnc(N3CCC(C(=O)O)CC3)c3ccc(C#N)cc23)cc1Cl` [1-[4-(3-Chloro-4-methoxy-benzylamino)-6-cyano-phthalazin-1-yl]-piperidine-4-carboxylic acid; hydrochloride], it took 3.1 nM to reach half-maximal inhibition (IC50).

On to `COc1ccc(CNc2nnc(N3CCC(O)CC3)c3ccc([N+](=O)[O-])cc23)cc1Cl` [1-[4-(3-Chloro-4-methoxy-benzylamino)-6-nitro-phthalazin-1-yl]-piperidin-4-ol; hydrochloride], for which the IC50 is 0.3 nM.

The molecule `COc1ccc(CNc2nnc(N3CCC(O)CC3)c3ccc(C(F)(F)F)cc23)cc1Cl` [1-[4-(3-Chloro-4-methoxy-benzylamino)-6-trifluoromethyl-phthalazin-1-yl]-piperidin-4-ol; hydrochloride] displayed an IC50 of 0.73 nM.

On to `COc1ccc(CNc2nnc(N3CCC(O)CC3)c3cc(Cl)c(Cl)cc23)cc1Cl` [1-[6,7-Dichloro-4-(3-chloro-4-methoxy-benzylamino)-phthalazin-1-yl]-piperidin-4-ol; hydrochloride], for which the IC50 is 0.86 nM.

On to `COc1ccc(CNc2nnc(N3CCC(O)CC3)c3ccc(Cl)cc23)cc1Cl` [1-[6-Chloro-4-(3-chloro-4-methoxy-benzylamino)-phthalazin-1-yl]-piperidin-4-ol; hydrochloride], for which the IC50 is 4.4 nM.

In turn, `COc1ccc(CNc2nnc(N3CCS(=O)(=O)CC3)c3ccc(C#N)cc23)cc1Cl` [4-(3-Chloro-4-methoxy-benzylamino)-1-(1,1-dioxo-1lambda*6*-thiomorpholin-4-yl)-phthalazine-6-carbonitrile; hydrochloride] showed an IC50 of 0.79 nM.

The molecule `COc1ccc(CNc2nnc(N3CC=CCC3)c3ccc(C#N)cc23)cc1Cl` [4-(3-Chloro-4-methoxy-benzylamino)-1-(3,6-dihydro-2H-pyridin-1-yl)-phthalazine-6-carbonitrile; hydrochloride] had an IC50 of 1.9 nM.

The molecule `COc1ccc(CNc2nnc(N3CCCC(O)C3)c3ccc(C#N)cc23)cc1Cl` (configuration not stated) [4-(3-Chloro-4-methoxy-benzylamino)-1-(3-hydroxy-piperidin-1-yl)-phthalazine-6-carbonitrile; hydrochloride] showed an IC50 of 1.2 nM.

Turning to `COc1ccc(CNc2nnc(NCCCO)c3ccc(C#N)cc23)cc1Cl` [4-(3-Chloro-4-methoxy-benzylamino)-1-(3-hydroxy-propylamino)-phthalazine-6-carbonitrile; hydrochloride], the midpoint of inhibition, the IC50, lay at 2.6 nM.

As to `COc1ccc(CNc2nnc(N3CCC(C)(O)CC3)c3ccc(C#N)cc23)cc1Cl` [4-(3-Chloro-4-methoxy-benzylamino)-1-(4-hydroxy-4-methyl-piperidin-1-yl)-phthalazine-6-carbonitrile; hydrochloride], the IC50 was determined as 0.7 nM.

Regarding `COc1ccc(CNc2nnc(N[C@H]3CC[C@H](O)CC3)c3ccc(C#N)cc23)cc1Cl` [4-(3-Chloro-4-methoxy-benzylamino)-1-(4-hydroxy-cyclohexylamino)-phthalazine-6-carbonitrile; hydrochloride], the concentration for half-maximal inhibition (IC50) turned out to be 12 nM.

Turning to `COc1ccc(CNc2nnc(N3CCC(O)CC3)c3ccc(C(N)=O)cc23)cc1Cl` [4-(3-Chloro-4-methoxy-benzylamino)-1-(4-hydroxy-piperidin-1-yl)-phthalazine-6-carboxylic acid amide; hydrochloride], 2 nM corresponded to half-maximal inhibition (IC50).

Consider `COc1ccc(CNc2nnc(N3CCC(O)CC3)c3ccc(C(=O)O)cc23)cc1Cl` [4-(3-Chloro-4-methoxy-benzylamino)-1-(4-hydroxy-piperidin-1-yl)-phthalazine-6-carboxylic acid; hydrochloride], for which the midpoint of inhibition, the IC50, lay at 600 nM.

`COc1ccc(CNc2nnc(N3CCC(CO)CC3)c3ccc(C#N)cc23)cc1Cl` [4-(3-Chloro-4-methoxy-benzylamino)-1-(4-hydroxymethyl-piperidin-1-yl)-phthalazine-6-carbonitrile; hydrochloride] came in with an IC50 of 0.93 nM.

As to `COc1ccc(CNc2nnc(N3CCC(OC)CC3)c3ccc(C#N)cc23)cc1Cl` [4-(3-Chloro-4-methoxy-benzylamino)-1-(4-methoxy-piperidin-1-yl)-phthalazine-6-carbonitrile; hydrochloride], 1.1 nM corresponded to half-maximal inhibition (IC50).

As for `COc1ccc(CNc2nnc(N3CCN(C)CC3)c3ccc(C#N)cc23)cc1Cl` [4-(3-Chloro-4-methoxy-benzylamino)-1-(4-methyl-piperazin-1-yl)-phthalazine-6-carbonitrile; hydrochloride], the IC50 came out at 0.95 nM.

As for `COc1ccc(CNc2nnc(N3CCC(=O)CC3)c3ccc(C#N)cc23)cc1Cl` [4-(3-Chloro-4-methoxy-benzylamino)-1-(4-oxo-piperidin-1-yl)-phthalazine-6-carbonitrile; hydrochloride], the IC50 came out at 0.53 nM.

As for `COc1ccc(CNc2nnc(N3CCN(c4ccccn4)CC3)c3ccc(C#N)cc23)cc1Cl` [4-(3-Chloro-4-methoxy-benzylamino)-1-(4-pyridin-2-yl-piperazin-1-yl)-phthalazine-6-carbonitrile; hydrochloride], the IC50 was found to be 11 nM.

Consider `COc1ccc(CNc2nnc(N3CCN(c4ncccn4)CC3)c3ccc(C#N)cc23)cc1Cl` [4-(3-Chloro-4-methoxy-benzylamino)-1-(4-pyrimidin-2-yl-piperazin-1-yl)-phthalazine-6-carbonitrile; hydrochloride], for which the IC50 is 19 nM.

Take `COc1ccc(CNc2nnc(N3CCN(CCO)CC3)c3ccc(C#N)cc23)cc1Cl` [4-(3-Chloro-4-methoxy-benzylamino)-1-[4-(2-hydroxy-ethyl)-piperazin-1-yl]-phthalazine-6-carbonitrile; hydrochloride]: the IC50 was 1.7 nM.

`COc1ccc(CNc2nnc(N3CCC(CCO)CC3)c3ccc(C#N)cc23)cc1Cl` [4-(3-Chloro-4-methoxy-benzylamino)-1-[4-(2-hydroxy-ethyl)-piperidin-1-yl]-phthalazine-6-carbonitrile; hydrochloride] showed an IC50 of 0.7 nM.

The molecule `COc1ccc(CNc2nnc(NCc3ccccn3)c3ccc(C#N)cc23)cc1Cl` [4-(3-Chloro-4-methoxy-benzylamino)-1-[(pyridin-2-ylmethyl)-amino]-phthalazine-6-carbonitrile; hydrochloride] gave an IC50 of 2.7 nM.

In the case of `COc1ccc(CNc2nnc(NCc3cccnc3)c3ccc(C#N)cc23)cc1Cl` [4-(3-Chloro-4-methoxy-benzylamino)-1-[(pyridin-3-ylmethyl)-amino]-phthalazine-6-carbonitrile; hydrochloride], the IC50 is 6.8 nM.

`COc1ccc(CNc2nnc(NCc3ccncc3)c3ccc(C#N)cc23)cc1Cl` [4-(3-Chloro-4-methoxy-benzylamino)-1-[(pyridin-4-ylmethyl)-amino]-phthalazine-6-carbonitrile; hydrochloride] registered an IC50 of 6.7 nM.

Molecule `COc1ccc(CNc2nnc(-n3ccnc3)c3ccc(C#N)cc23)cc1Cl` [4-(3-Chloro-4-methoxy-benzylamino)-1-imidazol-1-yl-phthalazine-6-carbonitrile; hydrochloride] had an IC50 of 1.5 nM.

`COc1ccc(CNc2nnc(N3CCNCC3)c3ccc(C#N)cc23)cc1Cl` [4-(3-Chloro-4-methoxy-benzylamino)-1-piperazin-1-yl-phthalazine-6-carbonitrile; hydrochloride] had an IC50 of 1.2 nM.

For the molecule `COc1ccc(CNc2nnc(N3CCCCC3)c3ccc(C#N)cc23)cc1Cl` [4-(3-Chloro-4-methoxy-benzylamino)-1-piperidin-1-yl-phthalazine-6-carbonitrile; hydrochloride], the IC50 is 0.55 nM.

`COc1ccc(CNc2nnc(N3CCSCC3)c3ccc(C#N)cc23)cc1Cl` [4-(3-Chloro-4-methoxy-benzylamino)-1-thiomorpholin-4-yl-phthalazine-6-carbonitrile; hydrochloride]: it took 0.32 nM to reach half-maximal inhibition (IC50).

`COc1ccc(CNc2nnc(N3CCC(NS(C)(=O)=O)CC3)c3ccc(C#N)cc23)cc1Cl` [N-{1-[4-(3-Chloro-4-methoxy-benzylamino)-6-cyano-phthalazin-1-yl]-piperidin-4-yl}-methanesulfonamide; hydrochloride] came in with an IC50 of 14 nM.
